This assay has as its target T1, Cbl-b (Homo sapiens, UniProt Q13191).
T1 construct: gene CBLB; N1/2 Construct; with E1 (UBE1) and E2 (UBC-H5) with ubiquitin in the assay
The assay is described as follows: in vitro Cbl-b autoubiquitination assay (UBA-coated plate, biotin-ubiquitin/avidin-HRP fluorescence), dose response. The format is biochemical.

The structures appear in SMILES notation.

T1 sequence (Q13191 whole entry): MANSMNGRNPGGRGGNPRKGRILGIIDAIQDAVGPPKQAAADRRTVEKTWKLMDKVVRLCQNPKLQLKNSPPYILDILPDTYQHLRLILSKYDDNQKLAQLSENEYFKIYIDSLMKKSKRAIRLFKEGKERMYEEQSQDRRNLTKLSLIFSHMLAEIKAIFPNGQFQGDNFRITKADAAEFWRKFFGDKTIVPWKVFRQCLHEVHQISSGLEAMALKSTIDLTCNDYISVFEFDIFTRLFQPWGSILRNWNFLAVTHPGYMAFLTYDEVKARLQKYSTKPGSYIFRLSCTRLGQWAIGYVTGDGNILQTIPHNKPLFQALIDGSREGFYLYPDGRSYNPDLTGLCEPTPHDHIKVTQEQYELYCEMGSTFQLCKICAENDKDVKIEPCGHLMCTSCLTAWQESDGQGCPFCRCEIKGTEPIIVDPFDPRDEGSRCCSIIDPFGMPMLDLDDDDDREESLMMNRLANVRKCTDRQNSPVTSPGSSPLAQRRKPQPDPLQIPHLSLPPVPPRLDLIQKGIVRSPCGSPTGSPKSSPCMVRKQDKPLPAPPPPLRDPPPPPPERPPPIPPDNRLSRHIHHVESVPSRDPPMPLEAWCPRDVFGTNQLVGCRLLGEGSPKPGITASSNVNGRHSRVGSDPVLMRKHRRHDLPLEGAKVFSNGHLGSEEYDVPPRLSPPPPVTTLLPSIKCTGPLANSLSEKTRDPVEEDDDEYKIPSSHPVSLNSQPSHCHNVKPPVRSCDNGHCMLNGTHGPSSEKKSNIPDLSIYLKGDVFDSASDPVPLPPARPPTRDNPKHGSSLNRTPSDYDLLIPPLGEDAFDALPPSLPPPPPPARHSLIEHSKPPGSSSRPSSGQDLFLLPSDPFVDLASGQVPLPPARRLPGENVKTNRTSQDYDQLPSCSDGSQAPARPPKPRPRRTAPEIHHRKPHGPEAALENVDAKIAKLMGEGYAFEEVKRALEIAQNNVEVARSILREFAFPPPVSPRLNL
T1 sequence (P22314 2-1058 partner): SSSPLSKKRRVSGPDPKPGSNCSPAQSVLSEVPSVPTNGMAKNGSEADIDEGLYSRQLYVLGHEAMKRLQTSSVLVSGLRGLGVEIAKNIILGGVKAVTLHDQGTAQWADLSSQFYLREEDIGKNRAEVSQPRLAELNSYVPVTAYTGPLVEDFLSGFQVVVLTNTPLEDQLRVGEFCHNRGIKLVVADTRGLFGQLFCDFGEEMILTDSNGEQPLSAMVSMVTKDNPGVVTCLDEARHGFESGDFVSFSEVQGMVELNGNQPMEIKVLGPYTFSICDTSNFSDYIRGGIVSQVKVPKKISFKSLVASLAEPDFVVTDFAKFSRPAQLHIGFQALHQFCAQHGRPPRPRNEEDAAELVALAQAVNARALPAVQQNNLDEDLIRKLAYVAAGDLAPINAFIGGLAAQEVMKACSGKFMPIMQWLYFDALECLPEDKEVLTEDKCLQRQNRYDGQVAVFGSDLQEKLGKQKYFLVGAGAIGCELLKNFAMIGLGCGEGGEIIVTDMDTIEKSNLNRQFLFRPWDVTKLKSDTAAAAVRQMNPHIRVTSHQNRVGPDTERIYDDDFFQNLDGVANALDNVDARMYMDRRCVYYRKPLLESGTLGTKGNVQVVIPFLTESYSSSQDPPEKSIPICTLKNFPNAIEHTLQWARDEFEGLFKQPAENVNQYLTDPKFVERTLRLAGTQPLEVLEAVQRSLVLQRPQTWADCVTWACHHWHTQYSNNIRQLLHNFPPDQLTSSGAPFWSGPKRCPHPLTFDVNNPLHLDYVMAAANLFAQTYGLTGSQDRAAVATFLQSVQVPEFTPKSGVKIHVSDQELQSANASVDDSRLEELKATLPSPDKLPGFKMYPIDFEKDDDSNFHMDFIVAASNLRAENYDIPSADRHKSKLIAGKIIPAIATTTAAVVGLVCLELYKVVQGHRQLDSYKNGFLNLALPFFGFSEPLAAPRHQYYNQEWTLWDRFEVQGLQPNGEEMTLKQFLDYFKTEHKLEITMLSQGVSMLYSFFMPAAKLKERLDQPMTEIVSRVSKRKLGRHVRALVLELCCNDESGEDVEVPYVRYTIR

The IC50 is the concentration that inhibits the measured activity by half. Regarding `CO[C@@]1(C(=O)N/C=C/c2ccc(O)cc2)O[C@](O)(C(=O)N/C=C/c2ccc(O)cc2)[C@@H](c2ccc(O)c(O)c2)[C@@H]1c1ccc(O)c(O)c1` [compound 1, suberitamide A], the IC50 was approximately 11 µM.
`O=C(N/C=C/c1ccc(O)cc1)c1c(-c2ccc(O)c(O)c2)c(-c2ccc(O)c(O)c2)c(C(=O)N/C=C/c2ccc(O)cc2)n1CCc1ccc(O)cc1` [compound 2, suberitamide B] had an IC50 of approximately 11 µM.
